Measured values taken from the NIST ThermoML archive (doi:10.1021/je060271a).

Conditions: 323.15 K, Liquid, Vibrating tube method

CCCCC(=O)OCC(COC(=O)CCCC)(COC(=O)CCCC)COC(=O)CCCC [pentaerythritol tetrapentanoate]
Conditions	mass density [kg/m3]
15928 kPa	1005.6
15948 kPa	1005.6
15968 kPa	1005.5
15988 kPa	1005.5
16012 kPa	1005.6
16032 kPa	1005.7
16056 kPa	1005.6
16076 kPa	1005.7
16096 kPa	1005.7
16116 kPa	1005.7
16141 kPa	1005.7
16161 kPa	1005.6
16185 kPa	1005.7
16205 kPa	1005.7
16227 kPa	1005.7
16252 kPa	1005.7
16273 kPa	1005.7
16293 kPa	1005.7
16318 kPa	1005.8
16339 kPa	1005.8
16360 kPa	1005.8
16385 kPa	1005.8
16406 kPa	1006
16427 kPa	1005.8
16453 kPa	1005.9
16474 kPa	1006
16495 kPa	1005.9
16521 kPa	1005.9
16542 kPa	1006
16564 kPa	1006
16586 kPa	1006
16612 kPa	1006
16634 kPa	1006.1
16660 kPa	1006.1
16681 kPa	1006
16704 kPa	1006.1
16730 kPa	1006.2
16752 kPa	1006.1
16774 kPa	1006.1
16800 kPa	1006.1
16823 kPa	1006.1
16845 kPa	1006.2
16872 kPa	1006.2
16894 kPa	1006.1
16917 kPa	1006.2
16944 kPa	1006.3
16967 kPa	1006.3
16990 kPa	1006.2
17017 kPa	1006.1
17040 kPa	1006.2
17063 kPa	1006.2
17090 kPa	1006.4
17114 kPa	1006.3
17138 kPa	1006.4
17161 kPa	1006.3
17189 kPa	1006.4
17212 kPa	1006.4
17236 kPa	1006.4
17264 kPa	1006.4
17288 kPa	1006.4
17312 kPa	1006.4
17335 kPa	1006.5
17364 kPa	1006.5
17388 kPa	1006.6
17412 kPa	1006.6
17441 kPa	1006.5
17467 kPa	1006.5
17491 kPa	1006.5
17520 kPa	1006.6
17544 kPa	1006.6
17568 kPa	1006.6
17593 kPa	1006.6
17623 kPa	1006.7
17647 kPa	1006.7
17672 kPa	1006.7
17702 kPa	1006.8
17726 kPa	1006.7
17756 kPa	1006.6
17781 kPa	1006.7
17807 kPa	1006.7
17832 kPa	1006.7
17862 kPa	1006.8
17887 kPa	1006.9
17913 kPa	1006.7
17944 kPa	1006.8
17969 kPa	1006.8
18000 kPa	1006.9
18025 kPa	1006.8
18051 kPa	1006.9
18077 kPa	1006.9
18108 kPa	1007
18134 kPa	1007
18161 kPa	1007.1
18192 kPa	1007
18218 kPa	1007
18249 kPa	1007.1
18276 kPa	1007.2
18303 kPa	1007.1
18329 kPa	1007.1
18361 kPa	1007.1
18388 kPa	1007.1
18415 kPa	1007.1
18447 kPa	1007.2
18475 kPa	1007.2
18502 kPa	1007.2
18530 kPa	1007.2
18563 kPa	1007.2
18590 kPa	1007.3
18618 kPa	1007.4
18651 kPa	1007.4
18679 kPa	1007.4
18707 kPa	1007.3
18740 kPa	1007.4
18768 kPa	1007.3
18797 kPa	1007.4
18831 kPa	1007.4
18859 kPa	1007.4
18888 kPa	1007.4
18917 kPa	1007.4
18952 kPa	1007.5
18980 kPa	1007.5
19014 kPa	1007.5
19043 kPa	1007.6
19072 kPa	1007.5
19101 kPa	1007.7
19136 kPa	1007.6
19166 kPa	1007.7
19196 kPa	1007.7
19232 kPa	1007.6
19262 kPa	1007.7
19292 kPa	1007.8
19322 kPa	1007.7
19388 kPa	1007.8
19515 kPa	1007.8
19552 kPa	1007.8
19582 kPa	1007.8
19613 kPa	1008
19650 kPa	1007.9
19682 kPa	1008
19716 kPa	1008
19747 kPa	1008.1
19778 kPa	1007.9
19817 kPa	1008
19848 kPa	1008
19887 kPa	1008
19919 kPa	1008
19952 kPa	1008.1
19992 kPa	1008.1
20023 kPa	1008.2
20052 kPa	1008.2
20085 kPa	1008.2
20113 kPa	1008.2
20143 kPa	1008.2
20171 kPa	1008.3
20199 kPa	1008.2
20232 kPa	1008.3
20260 kPa	1008.2
20288 kPa	1008.4
20321 kPa	1008.4
20349 kPa	1008.4
20383 kPa	1008.5
20411 kPa	1008.4
20440 kPa	1008.5
20474 kPa	1008.4
20502 kPa	1008.4
20532 kPa	1008.5
20561 kPa	1008.5
20596 kPa	1008.5
20625 kPa	1008.6
20659 kPa	1008.6
20689 kPa	1008.5
20718 kPa	1008.6
20747 kPa	1008.6
20783 kPa	1008.8
20813 kPa	1008.6
20848 kPa	1008.7
20877 kPa	1008.7
20908 kPa	1008.7
20944 kPa	1008.8
20974 kPa	1008.8
21004 kPa	1008.8
21035 kPa	1008.8
21072 kPa	1008.7
21102 kPa	1008.8
21133 kPa	1008.9
21170 kPa	1008.8
21202 kPa	1009
21233 kPa	1008.9
21271 kPa	1008.9
21302 kPa	1009
21334 kPa	1009.1
21366 kPa	1009
21404 kPa	1009
21436 kPa	1009.1
21467 kPa	1009.1
21506 kPa	1009.1
21538 kPa	1009
21570 kPa	1009.1
21602 kPa	1009.2
21640 kPa	1009.2
21673 kPa	1009.2
21712 kPa	1009.2
21744 kPa	1009.1
21778 kPa	1009.3
21817 kPa	1009.3
21851 kPa	1009.3
21883 kPa	1009.4
21916 kPa	1009.3
21956 kPa	1009.5
21989 kPa	1009.3
22029 kPa	1009.4
22063 kPa	1009.6
22097 kPa	1009.4
22137 kPa	1009.6
22171 kPa	1009.6
22206 kPa	1009.5
22241 kPa	1009.5
22282 kPa	1009.6
22316 kPa	1009.7
22351 kPa	1009.7
22393 kPa	1009.6
22429 kPa	1009.6
22457 kPa	1009.7
22500 kPa	1009.8
22542 kPa	1009.8
22578 kPa	1009.8
22621 kPa	1009.9
22658 kPa	1009.7
22697 kPa	1009.8
22736 kPa	1009.9
22782 kPa	1009.8
22818 kPa	1009.9
22851 kPa	1010
22882 kPa	1010
22921 kPa	1010.1
22951 kPa	1009.9
22978 kPa	1010.1
23006 kPa	1010
23030 kPa	1010
23059 kPa	1010.1
23083 kPa	1010.2
23108 kPa	1010.1
23132 kPa	1010.2
23156 kPa	1010.1
23180 kPa	1010.1
23209 kPa	1010.1
23233 kPa	1010.2
23262 kPa	1010.2
23287 kPa	1010.1
23311 kPa	1010.3
23336 kPa	1010.3
23364 kPa	1010.3
23389 kPa	1010.3
23414 kPa	1010.4
23444 kPa	1010.3
23468 kPa	1010.3
23497 kPa	1010.4
23523 kPa	1010.3
23547 kPa	1010.4
23572 kPa	1010.4
23603 kPa	1010.4
23627 kPa	1010.5
23657 kPa	1010.5
23683 kPa	1010.5
23708 kPa	1010.5
23738 kPa	1010.6
23763 kPa	1010.6
23790 kPa	1010.6
23820 kPa	1010.5
23846 kPa	1010.7
23871 kPa	1010.6
23902 kPa	1010.5
23928 kPa	1010.7
23954 kPa	1010.7
23985 kPa	1010.6
24011 kPa	1010.6
24037 kPa	1010.7
24063 kPa	1010.8
24094 kPa	1010.9
24121 kPa	1010.7
24148 kPa	1010.8
24180 kPa	1010.8
24206 kPa	1010.7
24237 kPa	1010.8
24264 kPa	1010.9
24291 kPa	1010.8
24318 kPa	1010.9
24350 kPa	1010.8
24378 kPa	1010.9
24405 kPa	1011
24437 kPa	1010.9
24464 kPa	1010.9
24497 kPa	1011.1
24525 kPa	1011
24552 kPa	1011
24580 kPa	1011.1
24612 kPa	1011
24640 kPa	1011
24667 kPa	1011.2
24701 kPa	1011.1
24728 kPa	1011.1
24761 kPa	1011.1
24789 kPa	1011.2
24817 kPa	1011.2
24845 kPa	1011.1
24879 kPa	1011.3
24908 kPa	1011.2
24936 kPa	1011.2
24970 kPa	1011.3
24999 kPa	1011.2
25027 kPa	1011.3
25056 kPa	1011.3
25091 kPa	1011.3
25119 kPa	1011.3
25148 kPa	1011.4
25182 kPa	1011.4
25212 kPa	1011.5
25247 kPa	1011.4
25278 kPa	1011.4
25307 kPa	1011.4
25336 kPa	1011.4
